The record followed here is US9745302B2 (TriOptoTec GmbH, priority 2011, dated 2017).

Counter-ions that a name gives are not always drawn.

The subject of assay [1] is Staphylococcus aureus (ATCC number: 25923). The assay can be described thus: Phototoxicity test (photodynamic inactivation, CFU count by Miles and Misra). Type of assay: cell-based. The note with it: irradiated at 50 mW/cm^2, 210 sec, 390-500 nm, CFU/ml counted after 24 h, median of 3. On the procedure: (§1) A sample of the bacterial strain Staphylococcus aureus (ATCC number: 25923) or Escherichia coli (ATCC number: 25922) was taken from a cryogenically frozen culture, isolated on Müller-Hinton agar plates and cultivated under aerobic conditions at 37° C. in an overnight culture. Thereafter, 5 ml of Müller-Hinton liquid medium were inoculated with a smear of the bacterial culture (single colony) and incubated at 37° C. overnight. The bacterial suspension thus obtained was centrifuged at 2500 rpm for 10 min and the bacterial pellet obtained was resuspended in 5 ml of sterile PBS. The optical density of the bacterial suspension for the phototoxicity tests was OD600 nm=0.6, which corresponds to a bacteria count of ˜[…] bacteria per ml. The biochemical analysis and resistance determination of the bacteria were conducted with the VITEK2 system according to the M100-S14 guidelines from the NCCLS (2004).
(§2) 200 μl of a bacterial suspension (bacterial density: 10^8-10^12/ml) were incubated with 200 μl of each of various concentrations of the photosensitizers to be tested at room temperature for 10 min or 30 min. Thereafter, the bacteria were washed twice with distilled water and resuspended in 200 μl of distilled water, and the entire volume was transferred to a 96-well microtiter plate and then irradiated. The photosensitizers used were dissolved in distilled water and various dilution series were prepared (0 μM, 1 μM, 10 μM, 100 μM).
(§3) For sensitization, the Omnicure Series 2000 lamp (Photonics Solutions Inc., Edinburgh, UK) was used, which emits light from a range from 390 nm to 500 nm and has emission maxima Emax at 405 nm and 436 nm. The power applied in each case was 50 mW/cm^2.
(§4) Irradiated and unirradiated samples were used as controls. Likewise run were bacterial suspensions incubated only with photosensitizer (dark control).
(§5) The determination of the colony-forming units (CFU) per ml was conducted by the method published by Miles and Misra (Miles, A A; Misra, S S, Irwin, J O (1938 November). “The estimation of the bactericidal power of the blood.”. The Journal of hygiene 38 (6): 732-49). For this purpose, serial dilutions from 10^−2 to 10^−9 of the corresponding bacterial suspension were prepared. 3×20 μl of each of the corresponding bacterial dilutions were then dripped onto Müller-Hinton plates and incubated at 37° C. for 24 h. Thereafter, the number of surviving colony-forming units (CFU) was determined. Each of the experiments was repeated three times.
(§6) The effectiveness of phototoxicity with respect to bacteria after irradiation was defined according to the following guidelines for hand hygiene in the health sector (Boyce, J. M., and D. Pittet. 2002. Guideline for Hand Hygiene in Health-Care Settings: recommendations of the Healthcare Infection Control Practices Advisory Committee and the HICPAC/SHEA/APIC/IDSA Hand Hygiene Task Force. Infect Control Hosp Epidemiol 23: p. 3-40): • reduction in the CFU/ml by 1 log10 stage ? 90% effectiveness • reduction in the CFU/ml by 3 log10 stages ? 99.9% effectiveness • reduction in the CFU/ml by 5 log10 stages ? 99.999% effectiveness
(§7) For effective inactivation, the decrease of ≧3 log10 stages can therefore be adopted, and S. aureus and E. coli were chosen as examples of representatives from the group of the Gram-positive and Gram-negative bacteria (see Boyce J. M and D. Pittet 2009).

The subject of assay [2] is Escherichia coli (ATCC number: 25922). Described as above. Type of assay: cell-based. The note with it: irradiated at 50 mW/cm^2, 210 sec, 390-500 nm, CFU/ml counted after 24 h, median of 3. On the procedure:
as §1, §2, §3, §4, §5, §6, §7

Take `CC[N+](CC)(CC)Cc1cc2c(cc1C)nc1c(=O)n(CCN)c(=O)nc-1n2CCN.Cl.Cl.[Br-]` [FL-13, [3,10-bis(2-aminoethyl)-7-methyl-2,4-dioxo-2,3,4,10-tetrahydro-benzo[g]pteridin-8-ylmethyl]triethylammonium bromide dihydrochloride]: the “Required concentration [μM] to achieve a reduction by ≧3log10 stages (decrease by 99.9%), irradiation at 10.5 J/cm^2, S. aureus” value in assay [1] (incubation 30 min) worked out at 10 μM. Also, the “Required concentration [μM] to achieve a reduction by ≧3log10 stages (decrease by 99.9%), irradiation at 10.5 J/cm^2, E. coli” value in assay [2] (incubation 30 min) came to 10 μM.
Turning to `Cc1cc2nc3c(=O)n(CCN)c(=O)nc-3n(CC[N+](C)(C)CCN)c2cc1C.Cl.Cl.[Cl-]` [FL-24, (2-aminoethyl)-{2-[3-(2-aminoethyl)-7,8-dimethyl-2,4-dioxo-3,4-dihydro-2H-benzo[g]pteridin-10-yl]ethyl}dimethylammonium chloride dihydrochloride], in assay [1] (incubation 30 min), the “Required concentration [μM] to achieve a reduction by ≧3log10 stages (decrease by 99.9%), irradiation at 10.5 J/cm^2, S. aureus” value turned out to be 10 μM. Further, the “Required concentration [μM] to achieve a reduction by ≧3log10 stages (decrease by 99.9%), irradiation at 10.5 J/cm^2, E. coli” value in assay [2] (incubation 30 min) is listed as >100^(*^) μM.
For `Cc1cc2nc3c(=O)[nH]c(=O)nc-3n(CC(OC(=O)C(N)CCCCN)C(OC(=O)C(N)CCCCN)C(COC(=O)C(N)CCCCN)OC(=O)C(N)CCCCN)c2cc1C` (centres unmarked), the “Required concentration [μM] to achieve a reduction by ≧3log10 stages (decrease by 99.9%), irradiation at 10.5 J/cm^2, S. aureus” value in assay [1] (incubation 10 min) is reported as 10 μM. Moreover, in assay [2] (incubation 10 min), the “Required concentration [μM] to achieve a reduction by ≧3log10 stages (decrease by 99.9%), irradiation at 10.5 J/cm^2, E. coli” value came to 10 μM.
As to `CCCCn1c2nc(=O)n(CC[N+](C)(C)C)c(=O)c-2nc2cc(C)c(C[N+](CC)(CC)CC)cc21.[Br-].[Br-]` [FL-15, [10-butyl-3-(2-trimethylammoniumethyl)-7-methyl-2,4-dioxo-2,3,4, 10-tetrahydrobenzo[g]pteridin-8-ylmethyl]triethylammonium dibromide], the “Required concentration [μM] to achieve a reduction by ≧3log10 stages (decrease by 99.9%), irradiation at 10.5 J/cm^2, S. aureus” value in assay [1] (incubation 30 min) came to 10 μM. Also, the “Required concentration [μM] to achieve a reduction by ≧3log10 stages (decrease by 99.9%), irradiation at 10.5 J/cm^2, E. coli” value in assay [2] (incubation 30 min) was found to be 10 μM.
`Cc1cc2nc3c(=O)n(CCN)c(=O)nc-3n(CCN)c2cc1C` [FL-02, 3,10-bis(2′-aminoeth-1′-yl)-7,8-dimethylbenzo[g]pteridine-2,4-dione hydrochloride]: the “Required concentration [μM] to achieve a reduction by ≧3log10 stages (decrease by 99.9%), irradiation at 10.5 J/cm^2, S. aureus” value in assay [1] (incubation 10 min) is given as 10 μM. Moreover, in assay [2] (incubation 10 min), the “Required concentration [μM] to achieve a reduction by ≧3log10 stages (decrease by 99.9%), irradiation at 10.5 J/cm^2, E. coli” value turned out to be 10 μM.
For `Cc1cc2nc3c(=O)[nH]c(=O)nc-3n(CCNCCN)c2cc1C.Cl.Cl` [FL-27, (2-aminoethyl)-[2-(7,8-dimethyl-2,4-dioxo-3,4-dihydro-2H-benzo[g]pteridin-10-yl)ethyl]amine dihydrochloride], the “Required concentration [μM] to achieve a reduction by ≧3log10 stages (decrease by 99.9%), irradiation at 10.5 J/cm^2, S. aureus” value in assay [1] (incubation 30 min) stood at 10 μM. The “Required concentration [μM] to achieve a reduction by ≧3log10 stages (decrease by 99.9%), irradiation at 10.5 J/cm^2, E. coli” value in assay [2] (incubation 30 min) came out at 100 μM.
For the compound `CC(=O)OCC(OC(C)=O)C(OC(C)=O)C(Cn1c2nc(=O)n(CCC[n+]3ccc(-c4cc[n+](C)cc4)cc3)c(=O)c-2nc2cc(C)c(C)cc21)OC(C)=O.[I-].[I-]` (centres unmarked) [FL-08, 1-{3-[7,8-dimethyl-2,4-dioxo-10-(2,3,4,5-tetraacetoxypentyl)-4,10-dihydro-2H-benzo[g]pteridin-3-yl]propyl}methyl-[4,4′]bipyridinyl-1-ium diiodide], the “Required concentration [μM] to achieve a reduction by ≧3log10 stages (decrease by 99.9%), irradiation at 10.5 J/cm^2, S. aureus” value in assay [1] (incubation 10 min) was 1 μM. For the same compound, the “Required concentration [μM] to achieve a reduction by ≧3log10 stages (decrease by 99.9%), irradiation at 10.5 J/cm^2, E. coli” value in assay [2] (incubation 10 min) is 1 μM.
For the compound `CCCCn1c2nc(=O)n(CCC[n+]3ccc(-c4cc[n+](C)cc4)cc3)c(=O)c-2nc2cc(C)c(C)cc21.[I-].[I-]` [FL-08b, 1-{3-[7,8-dimethyl-2,4-dioxo-10-(butyl)-4,10-dihydro-2H-benzo[g]pteridin-3-yl]-propyl}methyl-[4,4′]bipyridinyl-1-ium diiodide], the “Required concentration [μM] to achieve a reduction by ≧3log10 stages (decrease by 99.9%), irradiation at 10.5 J/cm^2, S. aureus” value in assay [1] (incubation 10 min) worked out at 10 μM. The “Required concentration [μM] to achieve a reduction by ≧3log10 stages (decrease by 99.9%), irradiation at 10.5 J/cm^2, E. coli” value in assay [2] (incubation 10 min) stood at 50 μM.
Regarding `Cc1cc2nc3c(=O)n(CC[N+](C)(C)C)c(=O)nc-3n(CC[N+](C)(C)C)c2cc1C.[I-].[I-]` [FL-17, 3,10-bis(2-trimethylammoniumethyl)-7,8-dimethyl-10H-benzo[g]pteridine-2,4-dione dibromide], the “Required concentration [μM] to achieve a reduction by ≧3log10 stages (decrease by 99.9%), irradiation at 10.5 J/cm^2, S. aureus” value in assay [1] (incubation 30 min) is on record as 100 μM. Also, in assay [2] (incubation 30 min), the “Required concentration [μM] to achieve a reduction by ≧3log10 stages (decrease by 99.9%), irradiation at 10.5 J/cm^2, E. coli” value was 100 μM.
Turning to `Cc1cc2nc3c(=O)n(CC[N+](C)(C)C)c(=O)nc-3n(CC[N+](C)(C)CC[N+](C)(C)C)c2cc1C.[Br-].[Br-].[Br-]` [FL-26, 3-(2-trimethylammoniumethyl)-10-{2-[(2-trimethylammoniumethyl)dimethyl-ammonium]ethyl}-7,8-dimethyl-10H-benzo[g]pteridine-2,4-dione tribromide], the “Required concentration [μM] to achieve a reduction by ≧3log10 stages (decrease by 99.9%), irradiation at 10.5 J/cm^2, S. aureus” value in assay [1] (incubation 30 min) turned out to be 10 μM. For the same compound, in assay [2] (incubation 30 min), the “Required concentration [μM] to achieve a reduction by ≧3log10 stages (decrease by 99.9%), irradiation at 10.5 J/cm^2, E. coli” value is recorded as >100^(*^) μM.
